Source: patent US10344019B2 (priority 2010, dated 2019)
Read-outs that look alike come from different tables or passages of the source.

Columns and labels:
Format in all cases: cell-based
[1] = system: HCV 1a RLuc cells (dicistronic genotype 1a H77 replicon, RLuc reporter); assay: microbe, parasite or virus in culture; conditions: Hepatitis C virus, read-out: 1a
How it was run: (§1)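 Renilla luciferase HCV replicon cells: dicistronic 1b Con1, 1a H77 or 2a JFH-1 replicons, or a JFH-1 chimera carrying J6 NS5A (M31 present). Compound in DMSO serial dilutions, 72 h incubation, then lysis and luciferase read. EC50 by non-linear regression.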

[2] = system: HCV 1b RLuc cells (dicistronic genotype 1b Con1 replicon, RLuc reporter); assay: microbe, parasite or virus in culture; conditions: Hepatitis C virus, read-out: 1b (nM)
How it was run: as §1

[3] = system: HCV 2a JFH-1 Rluc cells (dicistronic genotype 2a JFH-1 replicon, RLuc reporter); assay: microbe, parasite or virus in culture; conditions: Hepatitis C virus, read-out: 2a JFH
How it was run: as §1

[4] = system: HCV 2b Rluc cells (NS5A chimeric genotype 2a JFH-1 replicon with genotype 2b MD2b-1 NS5A gene, M31 present); assay: microbe, parasite or virus in culture; conditions: Hepatitis C virus, read-out: 2b
How it was run: (§2)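 Replicon cells stably carrying the listed RLuc-encoding dicistronic replicons were seeded and treated with DMSO serial dilutions of compound (10 mM stocks) diluted into culture medium. After 72 h, cells were lysed and Renilla luciferase activity measured. EC50 was derived by non-linear regression.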

[5] = system: HCV 3a RLuc cells (NS5A chimeric genotype 1b Con1 replicon with consensus genotype 3a NS5A gene); assay: microbe, parasite or virus in culture; conditions: Hepatitis C virus
How it was run: as §2

[6] = system: HCV 4a Rluc cells (NS5A chimeric genotype 1b Con1 replicon with genotype 4a NS5A gene); assay: microbe, parasite or virus in culture; conditions: Hepatitis C virus, read-out: 4a
How it was run: as §2

[7] = system: HCV 2a Rluc cells (NS5A chimeric genotype 2a JFH-1 replicon with genotype 2a J6 strain NS5A gene, M31 present); assay: HCV replicon reporter assay, genotype 2a J6 (M31 present); conditions: Hepatitis C virus, read-out: 2a J6
How it was run: as §1

[8] = read-out: 3a, genotype 3a replicon
[9] = genotype 2a JFH-1 RLuc replicon
[10] = read-out: 3a, genotype 3a NS5A chimeric replicon
[11] = genotype 1a H77 replicon, RLuc reporter
[12] = genotype 2a JFH-1 replicon, RLuc reporter
[13] = read-out: 3a, genotype 3a NS5A chimeric 1b Con1 replicon

Row | SMILES | EC50 ([1]; genotype 1a replicon) | EC50 [2] | EC50 ([3]; genotype 2a JFH-1 replicon) | EC50 [4] | EC50 [5, 8] | EC50 [6] | EC50 [7] | EC50 ([1]; genotype 1a H77 RLuc replicon) | EC50 [3, 9] | EC50 [5, 10] | EC50 [1, 11] | EC50 [3, 12] | EC50 [5, 13]
1 | COC(=O)N[C@H](C(=O)N1CCC[C@H]1c1nc2ccc3cc(-c4ccc5c(ccc6nc([C@@H]7C[C@H](C#N)CN7C(=O)[C@@H](NC(=O)OC)C(C)C)[nH]c65)c4)ccc3c2[nH]1)C(C)C [Example 416] | 0.001 to 0.999 nM | 0.043 nM | 0.001 to 0.999 nM | 1 to 44 nM | 0.001 to 0.99 nM | 0.001 to 0.99 nM | 0.001 to 0.999 nM |  |  |  |  |  | 
2 | COC[C@H]1C[C@@H](c2nc3ccc4cc(-c5ccc6c(ccc7nc([C@@H]8[C@@H]9CC[C@@H](C9)N8C(=O)[C@@H](NC(=O)OC)C(C)C)[nH]c76)c5)ccc4c3[nH]2)N(C(=O)[C@H](NC(=O)OC)c2ccccc2)C1 [Example 451] | 0.001 to 0.999 nM | 0.07 nM | 0.001 to 0.999 nM | 0.001 to 0.999 nM | 0.001 to 0.99 nM | 0.001 to 0.99 nM | 0.001 to 0.999 nM |  |  |  |  |  | 
3 | COC(=O)N[C@H](C(=O)N1CCC[C@H]1c1nc2ccc3cc(-c4ccc5c(ccc6nc([C@@H]7[C@@H]8CC[C@@H](C8)N7C(=O)[C@H](NC(=O)OC)c7ccccc7)[nH]c65)c4)ccc3c2[nH]1)C(C)C [Example 429] | 0.001 to 0.999 nM | 0.033 nM | 0.001 to 0.999 nM | 1 to 44 nM | 0.001 to 0.99 nM | 0.001 to 0.99 nM | 1 to 44 nM |  |  |  |  |  | 
4 | O=C(N[C@@H](C(=O)N1CCC[C@H]1c1ncc(-c2cc3c4c(c2)OCc2cc(-c5cnc([C@@H]6CCCN6C(=O)[C@H](NC(=O)c6cccnc6)c6ccccc6)[nH]5)cc(c2-4)OC3)[nH]1)c1ccccc1)c1cccnc1 [Example 469] | 0.001 to 0.999 nM | 0.752 nM | 0.001 to 0.999 nM | 0.001 to 0.999 nM | 0.001 to 0.99 nM | 0.001 to 0.99 nM | 0.001 to 0.999 nM |  |  |  |  |  | 
5 | COC[C@@H]1C[C@@H](c2nc3c([nH]2)-c2cc4c(cc2CC3)-c2ccc(-c3cnc([C@@H]5CCCN5C(=O)[C@@H](NC(=O)OC)C(C)C)[nH]3)cc2CO4)N(C(=O)[C@@H](NC(=O)OC)C(C)C)C1 [Example 493] |  | 0.03 nM |  | 0.001 to 0.999 nM |  | 0.001 to 0.99 nM | > 44 nM | 0.001 to 0.999 nM | 0.001 to 0.999 nM | 0.001 to 0.99 nM |  |  | 
6 | COC(=O)NC(C(=O)N1CCC[C@H]1c1ncc(-c2cc3c4c(c2)OCc2cc(-c5[nH]c([C@@H]6CCCN6C(=O)C(NC(=O)OC)c6cccnc6)nc5Cl)cc(c2-4)OC3)[nH]1)c1cccnc1 (some centres unmarked) [Example 420] | 1 to 44 nM | 4.66 nM | 0.001 to 0.999 nM | 1 to 44 nM | 0.001 to 0.99 nM | 1 to 4.99 nM | 1 to 44 nM |  |  |  |  |  | 
7 | COC(=O)N[C@H](C(=O)N1CCC[C@H]1c1ncc(-c2ccc3cc(-c4ccc(-c5cnc([C@@H]6C[C@@H](C)CN6C(=O)[C@H](NC(=O)OC)c6ccccc6)[nH]5)cc4)ccc3c2)[nH]1)C(C)C [Example 159] |  | 0.006 nM |  | 1 to 44 nM |  | 0.001 to 0.99 nM | > 44 nM |  |  |  | 0.001 to 0.999 nM | 0.001 to 0.999 nM | 0.001 to 0.99 nM
8 | COC(=O)N[C@H](C(=O)N1C[C@@H](C)C[C@H]1c1ncc(-c2cc3c4c(c2)OCc2cc(-c5cnc([C@@H]6C[C@H](C)CN6C(=O)[C@H](NC(=O)OC)c6ccccc6)[nH]5)cc(c2-4)OC3)[nH]1)C(C)C [Example 564] |  | 0.012 nM |  | 0.001 to 0.999 nM |  | 0.001 to 0.99 nM | 1 to 44 nM | 0.001 to 0.999 nM | 0.001 to 0.999 nM | 0.001 to 0.99 nM |  |  | 
9 | COC(=O)N[C@H](C(=O)N1CCC[C@H]1c1nc2ccc3cc(-c4ccc5c(ccc6nc([C@@H]7CC8(CN7C(=O)[C@@H](NC(=O)OC)C(C)C)OCCO8)[nH]c65)c4)ccc3c2[nH]1)C(C)C [Example 363] | 0.001 to 0.999 nM | 0.025 nM | 0.001 to 0.999 nM | > 44 nM | 1 to 4.99 nM | 0.001 to 0.99 nM | 1 to 44 nM |  |  |  |  |  | 
10 | COC(=O)N[C@H](C(=O)N1CCC[C@H]1c1ncc(-c2ccc3c(c2)COc2cc4c(ccc5nc([C@@H]6C[C@H]7C[C@H]7N6C(=O)[C@@H](NC(=O)OC)C(C)C)[nH]c54)cc2-3)[nH]1)C(C)C [Example 518] |  | 0.01 nM |  | 0.001 to 0.999 nM |  | 0.001 to 0.99 nM | 1 to 44 nM | 0.001 to 0.999 nM | 0.001 to 0.999 nM | 0.001 to 0.99 nM |  |  | 
11 | COC(=O)N[C@@H](C(=O)N1[C@@H]2C[C@@H]2C[C@H]1c1ncc(-c2cc3c4c(c2)OCc2cc(-c5cnc([C@@H]6C[C@H]7C[C@H]7N6C(=O)[C@H](NC(=O)OC)c6ccccc6)[nH]5)cc(c2-4)OC3)[nH]1)c1ccccc1 [Example 496] |  | 0.011 nM |  | 0.001 to 0.999 nM |  | 0.001 to 0.99 nM | 0.001 to 0.999 nM | 0.001 to 0.999 nM | 0.001 to 0.999 nM | 0.001 to 0.99 nM |  |  | 
12 | COC(=O)N[C@H](C(=O)N1CCC[C@H]1c1ncc(-c2ccc3cc(-c4ccc(-c5cnc([C@@H]6CC(F)(F)CN6C(=O)[C@H](NC(=O)OC)c6ccccc6)[nH]5)cc4)ccc3c2)[nH]1)C(C)C [Example 260] |  | 0.004 nM |  | > 44 nM |  | 0.001 to 0.99 nM | > 44 nM |  |  |  | 0.001 to 0.999 nM | 0.001 to 0.999 nM | 0.001 to 0.99 nM
13 | COC(=O)N[C@H](C(=O)N1C[C@@H](C)C[C@H]1c1ncc(-c2cc3c4c(c2)OCc2cc(-c5cnc([C@@H]6C[C@H](C)CN6C(=O)[C@H](NC(=O)C6C(C)(C)C6(C)C)c6ccccc6)[nH]5)cc(c2-4)OC3)[nH]1)C(C)C [Example 577] |  | 0.017 nM |  | 1 to 44 nM |  | 0.001 to 0.99 nM | > 44 nM | 0.001 to 0.999 nM | 0.001 to 0.999 nM | 0.001 to 0.99 nM |  |  | 
14 | CCS[C@H]1C[C@@H](c2nc3ccc4cc(-c5ccc6c(ccc7nc([C@@H]8C[C@H](COC)CN8C(=O)[C@H](NC(=O)OC)c8ccccc8)[nH]c76)c5)ccc4c3[nH]2)N(C(=O)[C@@H](NC(=O)OC)C(C)C)C1 [Example 583] |  | 0.018 nM |  | 0.001 to 0.999 nM |  | 0.001 to 0.99 nM | 0.001 to 0.999 nM | 0.001 to 0.999 nM | 0.001 to 0.999 nM | 0.001 to 0.99 nM |  |  | 
15 | COC(=O)N[C@H](C(=O)N1[C@@H](C)CC[C@H]1c1ncc(-c2cc3c4c(c2)OCc2cc(-c5cnc([C@@H]6CC[C@H](C)N6C(=O)[C@@H](NC(=O)OC)C(C)C)[nH]5)cc(c2-4)OC3)[nH]1)C(C)C [Example 460] | 0.001 to 0.999 nM | 0.018 nM | 0.001 to 0.999 nM | 0.001 to 0.999 nM | 0.001 to 0.99 nM | 0.001 to 0.99 nM | 1 to 44 nM |  |  |  |  |  | 
16 | COC(=O)N[C@H](C(=O)N1CCC[C@H]1c1ncc(-c2ccc3c(c2)COc2c-3ccc3c2ccc2nc([C@@H]4CCCN4C(=O)[C@H](NC(=O)OC)c4ccccc4)[nH]c23)[nH]1)C(C)C [Example 413] | 0.001 to 0.999 nM | 0.017 nM | 0.001 to 0.999 nM | 1 to 44 nM | 0.001 to 0.99 nM | 0.001 to 0.99 nM | 1 to 44 nM |  |  |  |  |  | 
17 | COC(=O)N[C@H](C(=O)N1CCC[C@H]1c1ncc(-c2ccc3c(ccc4cc(-c5cnc([C@@H]6CCCN6C(=O)[C@@H](NC(=O)OC)C(C)C)[nH]5)ccc43)c2)[nH]1)C(C)C [Example 282] |  | 0.007 nM |  | > 44 nM |  | 0.001 to 0.99 nM | > 44 nM |  |  |  | 0.001 to 0.999 nM | 0.001 to 0.999 nM | 0.001 to 0.99 nM
18 | COC(=O)N[C@H](C(=O)N1[C@@H]2CC[C@@H](C2)[C@H]1c1nc2ccc3cc(-c4ccc5c(ccc6nc([C@@H]7CCCN7C(=O)[C@H](NC(=O)OC)c7ccccc7)[nH]c65)c4)ccc3c2[nH]1)C(C)C [Example 314] | 0.001 to 0.999 nM | 0.026 nM | 0.001 to 0.999 nM | 0.001 to 0.999 nM | 0.001 to 0.99 nM | 0.001 to 0.99 nM | 0.001 to 0.999 nM |  |  |  |  |  | 
19 | COC(=O)N[C@H](C(=O)N1C[C@@H](OC)C[C@H]1c1ncc(-c2ccc(-c3ccc4cc(-c5cnc([C@@H]6CCCN6C(=O)[C@H](NC(=O)OC)c6ccccc6)[nH]5)ccc4c3)cc2)[nH]1)C(C)C [Example 123] |  | 0.014 nM |  | > 44 nM |  | 0.001 to 0.99 nM | > 44 nM |  |  |  | 0.001 to 0.999 nM | 0.001 to 0.999 nM | 0.001 to 0.99 nM
20 | COC(=O)N[C@H](C(=O)N[C@@H](C(=O)N1CCC[C@H]1c1ncc(-c2cc3c4c(c2)OCc2cc(-c5cnc([C@@H]6CCCN6C(=O)[C@H](NC(=O)[C@@H](NC(=O)OC)C(C)C)c6ccccc6)[nH]5)cc(c2-4)OC3)[nH]1)c1ccccc1)C(C)C [Example 483] | 1 to 44 nM | 0.814 nM | 0.001 to 0.999 nM | 0.001 to 0.999 nM | 0.001 to 0.99 nM | 0.001 to 0.99 nM | > 44 nM |  |  |  |  |  | 
